Measured values as given in patent US6133279A, “Therapeutic agents for renal diseases and organ preservatives” (Chugai Seiyaku Kabushiki Kaisha, priority 1996, dated 2000).
Read-outs that look alike come from different tables or passages of the source.

Legend:
[1] = tested on: murine mesangial derived MES13 cells; assay: Protective effect against oxidized LDL-induced injury of murine mesangial cells (in vitro); format: cell-based; conditions: Mus musculus, MES13, 10 h, mean ± standard deviation, read-out: Cytoprotection rate (%)
Protocol: For the purpose of evaluating in vitro cytoprotective effect of the compounds of the present invention on mesangial cells, a cytoprotective study was performed using murine mesangial derived MES13 cells (ATCC-CRL-1927) injured by oxidized LDL.
Oxidized LDL was prepared in the same manner as in Test example 1. Cell culture was carried out by plating 2.5×10^4 cells/250 μl/well on a 48-well plate using FBS-free medium (mixture of DME medium and F12 medium in a ratio of 3:1). Test compounds were dissolved or suspended in ethanol and added to the wells in an amount of 1.25 μl/well to a concentration of 1 or 10 μM in each well. After 16 hours or immediately after the addition of the compounds, oxidized LDL was added to cells in an amount of 25 μl/well to a concentration of 91 μg/ml and the cells were cultured for 10 hours after addition of the oxidized LDL. Then, 150 μl/well of the culture medium were collected and measured for the lactate dehydrogenase level (LDL: SIGMA DIAGNOSTICS) having leaked in the medium.
The magnitude of cytoprotective effect was expressed as the cytoprotection rate which was determined by calculating the data assuming that the magnitude in wells containing oxidized LDL is 0% and that the magnitude in containing saline is 100%.

[2] = tested on: porcine kidney-derived LLC-PK1 cells; assay: Protective effect against oxidized LDL-induced injury of porcine kidney-derived LLC-PK1 cells (2); format: cell-based; conditions: Sus scrofa, LLC-PK1, 6 h, mean ± standard deviation, read-out: Cytoprotection rate (%)
Protocol: For the purpose of evaluating in vitro cytoprotective effect of the compounds of the present invention, a cytoprotective study was performed using porcine kidney-derived LLC-PK1 cells (ATCC-CRL-13921) injured by oxidized low-density lipoprotein (oxidized LDL) in the same manner as in Test example 1 with the exception of some points.
Preparation of oxidized LDL and the conditions for cell culture and addition of test compounds were the same as in Test example 1. However, oxidized LDL was not diluted with saline and added to cells in an amount of 25 μl/well to a concentration of 91 μg/ml and the cells were cultured for 6 hours after addition of the oxidized LDL. Then, 150 μl/well of the culture medium were collected and measured for the lactate dehydrogenase (LDH) level (LD-L: SIGMA DIAGNOSTICS) having leaked in the medium.

[3] = compound added 16 hours before adding oxidized LDL
[4] = compound added immediately before adding oxidized LDL

SMILES | inhibition at 1 µM [1, 3] [%] | inhibition at 1 µM [1, 4] [%] | inhibition at 10 µM [1, 3] [%] | inhibition at 10 µM [1, 4] [%] | inhibition at 0.1 µM [2, 3] [%] | inhibition at 0.1 µM [2, 4] [%] | inhibition at 1 µM [2, 3] [%] | inhibition at 1 µM [2, 4] [%] | inhibition at 10 µM [2, 3] [%] | inhibition at 10 µM [2, 4] [%]
CCOC(=O)/C=C/C1(C)Cc2c(cc(C(C)(C)C)c(O)c2C(C)(C)C)O1 (centres unmarked) [Example 75, Ethyl 3-(4,6-di-t-butyl-5-hydroxy-2-methyl-2,3-dihydrobenzofuran-2-yl)-2-propenoate] | -8 ± 2 | 32.3 ± 2.4 | 64.5 ± 6.4 | 79 ± 1.8 | 4.9 ± 2.7 | -4.9 ± 1.8 | 26.6 ± 7 | 51.8 | 99.8 ± 0.9 | 98.7 ± 0.4
CC1(CNC(=N)NN)Cc2c(cc(C(C)(C)C)c(O)c2C(C)(C)C)O1 (centres unmarked) [Example 81, 1-Amino-3-[(4,6-di-t-butyl-5-hydroxy-2-methyl-2,3-dihydrobenzofuran-2-yl)methyl]guanidine] | -3.9 ± 1.5 | 3.9 ± 2.2 | 7.3 ± 7.2 | 73.4 ± 3.3 | 6.9 ± 3.1 | 8.8 ± 1.6 | 4.2 ± 5.1 | 37.8 | 101.1 ± 0.1 | 101.3 ± 0.1
CCOC(=O)CCC1(C)Cc2c(cc(C(C)(C)C)c(O)c2C(C)(C)C)O1 (centres unmarked) [Example 76, Ethyl 3-(4,6-di-t-butyl-5-hydroxy-2-methyl-2,3-dihydrobenzofuran-2-yl)propanoate] | -4.8 ± 4.1 | 5.3 ± 3.9 | -17.2 ± 0.9 | 34.1 ± 2.5 | -10.4 ± 4.2 | -12.8 ± 1.2 | -2.8 ± 3.5 | -7.6 | 13.8 ± 4.2 | 58.8 ± 9.5
CC1(COc2ccc(CNNC(=N)N)cc2)Cc2c(cc(C(C)(C)C)c(O)c2C(C)(C)C)O1 (centres unmarked) [Example 86, 1-{4-[(4,6-Di-t-butyl-5-hydroxy-2-methyl-2,3-dihydrobenzofuran-2-yl)methoxy]benzylamino}guanidine] | -1 ± 11.2 | 19.8 ± 7 | -4.3 ± 1.9 | 78.7 ± 0.7 | -0.4 ± 1.9 | -0.7 ± 2.3 | 3.6 ± 5.8 | 0.2 | 40 ± 2.2 | 102.5 ± 0.5
CC1(CNC(N)=S)Cc2c(cc(C(C)(C)C)c(O)c2C(C)(C)C)O1 (centres unmarked) [Example 80, 1-[(4,6-Di-t-butyl-5-hydroxy-2-methyl-2,3-dihydrobenzofuran-2-yl)methyl]thiourea] | -7 ± 0.8 | -1.3 ± 3.4 | 22.1 ± 0.7 | 56.2 ± 2.4 | 9.2 ± 1.8 | -1.3 ± 1.4 | 23.7 ± 5.8 | 10.7 | 102.4 ± 0.5 | 102.6 ± 1
CC1(CNNC(=N)N)Cc2c(cc(C(C)(C)C)c(O)c2C(C)(C)C)O1 (centres unmarked) [Example 87, 1-[(4,6-Di-t-butyl-5-hydroxy-2-methyl-2,3-dihydrobenzofuran-2-yl)methylamino]guanidine] | 3.7 ± 3.3 | 30.3 ± 3.8 | 35.5 ± 4.2 | 86.2 ± 0.6 | -7.8 ± 4.4 | -0.3 ± 0.5 | 6.5 ± 5.2 | 28.6 | 103.6 ± 0.5 | 101.8 ± 0.6
CN(C)CC1(C)Cc2c(cc(C(C)(C)C)c(O)c2C(C)(C)C)S1 (centres unmarked) [Example 61, 4,6-Di-t-butyl-5-hydroxy-2-(N,N-dimethylaminomethyl)-2-methyl-2,3-dihydrobenzothiophene] | – | – | – | – | 5 ± 1.2 | 5.1 ± 1.5 | 85.7 ± 8.1 | 97.6 | 101.3 ± 0.6 | 101.7 ± 0.5
CC1(CO)Cc2c(cc(C(C)(C)C)c(O)c2C(C)(C)C)S1 (centres unmarked) [Example 63, 4,6-Di-t-butyl-5-hydroxy-2-hydroxymethyl-2-methyl-2,3-dihydrobenzothiophene] | – | – | – | – | 4.2 ± 4.4 | 5.9 ± 1.7 | 95.3 ± 3.6 | 97.3 | 100.2 ± 0.4 | 101.1 ± 0.2
CC(C)(C)c1cc2c(c(C(C)(C)C)c1O)CC1(CCOCC1)S2 [Example 69, 4,6-Di-t-butyl-5-hydroxy-2,3-dihydrobenzothiophene-2-spiro-4'-tetrahydropyran] | 4.2 ± 6.3 | 15.6 ± 4 | 54.8 ± 9.3 | 89.8 ± 0.8 | 1 ± 4.7 | 4.5 ± 2.1 | 24.6 ± 12.8 | 42.5 | 100.4 ± 0.5 | 101.6 ± 0.7
CC(C)(C)c1cc2c(c(C(C)(C)C)c1O)CC1(CCCCC1)O2 [Example 19, 4,6-Di-t-butyl-5-hydroxy-2,3-dihydrobenzofuran-2-spiro-1'-cyclohexane] | – | – | – | – | 2.7 ± 1.6 | 1.2 ± 0.9 | 60.6 ± 6.1 | 86.8 ± 5.2 | 103 ± 1.2 | 101 ± 2.5
CC(C)(C)c1cc2c(c(C(C)(C)C)c1O)CC1(CCCCCCC1)O2 [Example 21, 4,6-Di-t-butyl-5-hydroxy-2,3-dihydrobenzofuran-2-spiro-1'-cyclooctane] | -7.5 ± 4.2 | -1.5 ± 1.2 | -7 ± 3.4 | 11.9 ± 4.8 | 15.6 ± 3.6 | 2.5 ± 2.5 | 13.7 ± 13.4 | 6.1 | 16 ± 2.6 | 14.4 ± 3.9
CC1(C=CCCCC(=O)O)Cc2c(cc(C(C)(C)C)c(O)c2C(C)(C)C)O1 (centres unmarked) [Example 77, 6-(4,6-Di-t-butyl-5-hydroxy-2-methyl-2,3-dihydrobenzofuran-2-yl)-5-hexenoicacid] | 8.4 ± 0.4 | 8.7 ± 2.3 | 2.5 ± 2.8 | 24.3 ± 1.7 | 12.3 ± 2.7 | 9.1 ± 1.8 | 6.1 ± 1.5 | 10.6 | 35.8 ± 4 | 48.5 ± 2.1
CC1(CN)Cc2c(cc(C(C)(C)C)c(O)c2C(C)(C)C)O1 (centres unmarked) [Example 70, 2-Aminomethyl-4,6-di-t-butyl-5-hydroxy-2-methyl-2,3-dihydrobenzofuran] | – | – | – | – | 17.5 ± 2.2 | 9.9 ± 2.4 | 101 ± 0.7 | 101 | 100.7 ± 0.8 | 101.3 ± 0.6
CC1(CCCCCC(=O)O)Cc2c(cc(C(C)(C)C)c(O)c2C(C)(C)C)O1 (centres unmarked) [Example 78, 6-(4,6-Di-t-butyl-5-hydroxy-2-methyl-2,3-dihydrobenzofuran-2-yl)hexanoic acid] | 13.5 ± 5.6 | 13.2 ± 1.4 | 7.6 ± 2.1 | 51.3 ± 2.7 | -2.8 ± 0.9 | -11.6 ± 2.7 | -10.7 ± 8.9 | -6.7 | 67.5 ± 6.1 | 80.9 ± 1.5
CC1(C(=O)N2CCCC2)Cc2c(cc(C(C)(C)C)c(O)c2C(C)(C)C)O1 (centres unmarked) [Example 74, 1-(4,6-Di-t-butyl-5-hydroxy-2-methyl-2,3-dihydrobenzofuran-2-carbonyl)pyrrolidine] | -10.2 ± 1.4 | 18.7 ± 2.8 | 24.5 ± 3.3 | 73 ± 0.3 | 25.2 ± 3.3 | 10.1 ± 2.3 | 54.8 ± 3.8 | 72.7 | 103.6 ± 0.5 | 103.5 ± 0.6
